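Results reflect a 48-hour exposure of cells in 96-well plates to compound at five concentrations. At the GI50, growth is halved. Definition used: TGI = concentration required for complete inhibition of growth.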
What was measured:
Assay in all cases: NCI anticancer screen, dose series, 48 h
BT-549 breast = test system: BT-549 breast
EKVX NSCLC = test system: EKVX NSCLC
HOP-92 NSCLC = test system: HOP-92 NSCLC
IGROV1 ovarian = test system: IGROV1 ovarian
KM12 colon = test system: KM12 colon
MDA-MB-231 breast = test system: MDA-MB-231 breast
MOLT-4 leukemia = test system: MOLT-4 leukemia
NCI-H23 lung = test system: NCI-H23 lung

Structure (SMILES)	GI50 (BT-549 breast) [µM]	TGI (BT-549 breast) [µM]	GI50 (EKVX NSCLC) [µM]	TGI (EKVX NSCLC) [µM]	GI50 (HOP-92 NSCLC) [µM]	TGI (HOP-92 NSCLC) [µM]	GI50 (IGROV1 ovarian) [µM]	TGI (IGROV1 ovarian) [µM]	GI50 (KM12 colon) [µM]	TGI (KM12 colon) [µM]	GI50 (MDA-MB-231 breast) [µM]	TGI (MDA-MB-231 breast) [µM]	GI50 (MOLT-4 leukemia) [µM]	TGI (MOLT-4 leukemia) [µM]	GI50 (NCI-H23 lung) [µM]	TGI (NCI-H23 lung) [µM]
Oc1ccc2ccccc2c1/C=N\Nc1ccccn1	3.84	> 54.9	0.656	> 21.6	0.403	> 100	0.273	2.05	1.09	> 100	0.463	> 43	0.358	> 100	0.539	> 100
CCOC1NC(=O)Oc2ccccc21 (configuration not stated)	–	> 100	–	> 100	–	> 100	–	> 100	–	> 100	–	> 100	–	> 100	–	> 100
COC(=O)c1oc2c(C(=O)/C=C/c3ccc(OC)cc3)c(OCCCN3CCCCC3)ccc2c1C	2.89	9.11	2.01	7.18	0.808	2.59	0.782	4.43	1.7	3.66	1.69	3.78	1.6	4.97	1.3	3.47
CN(C)/[N+]([O-])=N/Oc1cc(Nc2ccc(C(=O)O)cc2)c([N+](=O)[O-])cc1[N+](=O)[O-]	18.5	34.6	20.1	46.8	–	–	14.9	34.4	14.6	30.8	17	31.3	53.3	> 100	20.3	40.9
O=[N+]([O-])c1ccc2[nH]cc(-c3c4ccccc4cc4[nH]c5ccc([N+](=O)[O-])cc5c34)c2c1	2.29	5.94	2.4	8.41	2.25	5.89	2.15	4.68	1.78	3.37	2.27	5.83	2.45	6.55	2.59	8.11
C=C1C(=O)O[C@H]2[C@H]1CC/C(COC(=O)CCC(=O)OC/C1=C/CC[C@@]3(C)O[C@H]3[C@H]3OC(=O)C(=C)[C@@H]3CC1)=C\CC[C@@]1(C)O[C@@H]21	1.4	2.83	2.55	11.6	0.71	2.38	2.26	8.83	3.88	16.6	1.65	3.72	0.561	2.8	2.9	11.2
COc1cc2c(/C=C3\C(=O)Nc4ccc(Br)cc43)c(Cl)n(C)c2cc1C	1.49	4.77	3.76	34.1	2.37	17.9	–	–	0.387	1.88	2.63	10.5	5.63	> 27.5	2.78	13
N#Cc1c2ccccc2c2nnc3cc(Cl)c(Cl)cc3n12	60.9	> 100	48.6	> 100	42	> 100	44.5	> 100	> 100	> 100	24.2	74.6	27.4	> 100	75.1	> 100
COc1ccc(Cc2ccccc2C(=O)O)c2ccccc12	–	> 100	–	98.9	–	61.9	–	65.1	–	42.9	–	> 100	–	–	–	67.3
O=C(NC(=S)NS(=O)(=O)c1ccc(N2N=C3c4ccccc4CC3C2c2cccs2)cc1)c1ccccc1 (configuration not stated)	21.6	> 100	19.6	> 100	53.1	> 100	3.14	> 100	28.2	91.8	22.5	90.1	26.2	69.9	–	–
Cc1nc2cc(O)c(O)cc2cc1Oc1ccc(NC(=O)Nc2ccc(Cl)c(Cl)c2)cc1	7.5	> 32.5	–	–	2.85	16.7	12.3	> 32.5	9.64	32	2.49	> 32.5	8.87	> 32.5	6.97	19.6
COc1cc(/C=C/C(=O)c2ccc(Nc3nc(Nc4ccc(F)cc4)nc(Nc4ccc(F)cc4)n3)cc2)cc(OC)c1OC	–	–	59.1	> 100	2.3	42.6	3.59	> 100	8.79	> 100	15.8	> 100	1.93	> 100	4.86	> 100
Fc1ccc(Nc2nc(Nc3ccc(-c4nc5ccccc5[nH]4)cc3)nc(N3CCCC3)n2)cc1	6.9	20.7	2.27	12.8	1.76	5.38	–	–	2.98	10	1.87	4.35	2.19	5.74	3.36	16.8
O=C(Nc1ccccc1Cl)c1ccc(NC2=C(Cl)C(=O)N(Cc3ccccc3)C2=O)cc1	43	> 100	> 100	> 100	–	–	46.4	> 100	32.7	> 100	31.3	91.9	19.1	50.8	19.2	35.7
Cn1c(=O)c(Cc2ccc(F)cc2F)cc2cnc(NC3CCOCC3)nc21	> 16.6	> 25	–	–	2.13	> 25	> 25	> 25	> 25	> 25	> 16.2	> 25	> 21.2	> 25	> 25	> 25
O=C1c2cc3c(cc2-c2c1c1ccc([N+](=O)[O-])cc1c(=O)n2CCCCl)OCO3	0.308	24.5	6.13	> 100	–	> 100	–	–	2.27	> 100	–	> 24.9	0.0528	> 100	0.285	–
Cn1c2ccccc2c2c3c(c4c5ccccc5n(CCCCCC#N)c4c21)C(=O)N(O)C3=O	2.5	88.7	2.67	> 100	1.77	6.99	1.59	4.61	1.5	5.95	2.34	7.92	–	–	1.18	9.91
CCCNc1nc(-c2ccc(OC)cc2)nc2ccccc12	–	–	–	–	9.06	29.3	24	> 100	14.6	30.8	–	–	46.4	> 100	18	45.9
COC(=O)c1c(-c2ccccc2)csc1NC(=O)c1c(-c2ccccc2)noc1C	–	> 100	–	> 100	–	–	3.44	> 100	0.802	> 100	7.66	> 100	1.22	> 100	> 29.7	> 100
CCOc1ccc2c(c1)/C(=C\C=C\C1CC(C)C3CC(OCC)CCC3N1CC)CC(C)N2CC (configuration not stated)	0.906	2.46	–	–	1.21	2.58	1.11	3.13	0.673	1.92	1.22	2.92	1.47	4.14	0.567	2.38
Cc1ccc(/C=C2\CCOC2=O)cc1	> 100	> 100	–	–	> 100	> 100	82.5	> 100	> 100	> 100	> 100	> 100	> 100	> 100	> 100	> 100
O=C1NC(=NCCc2ccccc2Cl)S/C1=C\c1ccc2ncccc2c1	4.94	> 22	–	–	4	22.2	5.75	> 25	2.5	> 25	10.3	> 25	5.4	17.2	6.06	> 25
CCCCCCCCSC1=CC(=O)C(OC)=C(OC)C1=O	7	19.4	10.1	24.8	–	–	5.66	23.4	3.43	13.7	3.5	8.16	1.87	> 100	3.36	16.2
Nc1nc(Cl)nc2c1ncn2C1O[C@H](CO)[C@@H](O)[C@@H]1F (some centres not stated)	0.091	0.702	1.51	> 100	0.0653	4.8	> 73.5	> 100	29.7	> 100	–	> 100	0.033	–	–	–

From PubChem BioAssay (NCI)
